{
  "source": "ChEMBL document CHEMBL1158677",
  "about": "“New Diterpene Lactones from the Sponge Spongia matamata” (J Nat Prod, 1998)",
  "test_system": "Artemia",
  "test": "Toxicity in brine shrimp",
  "type": "organism-based",
  "conditions": "in vivo; call rule not given here",
  "data": [
    {"smiles": "C[C@]12CC(=O)O[C@@](C)(CO)[C@@H]1CC[C@@]1(C)c3cocc3CC[C@H]21", "values": [
      {"measurement": "Activity", "result": "Not Active"}
    ]}
  ]
}
